Measurements as given in patent publication US7276511B2, “Benzylamine derivative” (Zeria Pharmaceutical Co., Ltd., priority 2003, dated 2007).
Structures can show the parent of a compound that is named as a salt.

Target: T1, Cloned Neurokinin Receptor Subtype 2 Human (Homo sapiens, UniProt P21452)
T1 construct: purchased Biosignal Packard; host or cells: CHO cells
T1 sequence (P21452 1-398): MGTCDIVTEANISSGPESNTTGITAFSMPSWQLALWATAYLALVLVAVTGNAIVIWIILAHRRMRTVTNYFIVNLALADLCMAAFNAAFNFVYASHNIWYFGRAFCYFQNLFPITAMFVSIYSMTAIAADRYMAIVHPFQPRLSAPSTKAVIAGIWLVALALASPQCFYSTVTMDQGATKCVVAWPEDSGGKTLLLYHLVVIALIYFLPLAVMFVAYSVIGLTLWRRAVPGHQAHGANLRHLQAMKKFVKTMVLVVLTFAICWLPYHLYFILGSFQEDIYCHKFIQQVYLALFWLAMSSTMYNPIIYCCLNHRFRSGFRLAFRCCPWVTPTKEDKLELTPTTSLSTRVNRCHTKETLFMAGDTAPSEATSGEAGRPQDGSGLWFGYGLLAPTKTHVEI
Experiment: NK-2 receptor-binding experiment ([3H]-SR48968, CHO cell membranes)
Conditions: Table 3; inhibition of [3H]-SR48968 (0.85 nM) binding, pseudo-Hill analysis
Procedure: 2. NK-2 Receptor-binding Experiment
Cloned Neurokinin Receptor Subtype 2 Human (CHO cells, Biosignal Packard), [^3H]-SR48968 (Amersham, final concentration 0.85 nM), and a test compound were mixed with 20 mM HEPES buffer, and the mixture was incubated for 50 minutes at 27° C. After completion of incubation, membrane components were collected by means of an automatic filtration apparatus (Brandel) onto a GF/C glass fiber filter (Whatman).
Before use, in order to prevent non-specific binding, the glass fiber filter had been pre-treated with 0.1% polyethylene imine solution for about 4 hours.
The filter employed to collect the membrane components was transferred to a plastic vial containing UltimaGold MV (5 mL), and measured by means of a liquid scintillation counter (Packard, 2000CA) in terms of the radioactivity.
Percent radioactive ligand-receptor binding inhibition of each test compound was calculated by use of the following equation, and IC50 (nM) was determined through pseudo-Hill analysis.
Percent inhibition (%)=[1−(C−A)/(B−A)]×100
A: Radioactivity attributed to non-specific binding
B: Radioactivity without test compound
C: Radioactivity with test compound

| IC50 | Structure (SMILES) |
| --- | --- |
| 1.7 nM | CN(CC(CCN1CCC2(CC1)NC(=O)Cc1ccccc12)(c1ccc(Cl)c(Cl)c1)N(C)C(=O)NC(c1ccccc1)c1ccccc1)C(=O)C(F)(F)F (stereo not drawn) [Compound No. 3, N-{2-(3-benzhydryl-1-methylureido)-2-(3,4-dihydrodichlorophenyl)-4-{spiro[isoquinoline-1(2H),4′-piperidine]-3(4H)-one}-1′-yl-butyl}-2,2,2-trifluoro-N-methyl-acetamide hydrochloride] |
| 0.73 nM | CCN(C(=O)C(=O)N(C)[C@](CCN1CCC2(CC1)NC(=O)Cc1ccccc12)(CN(C)C(=O)C(C)C)c1ccc(Cl)c(Cl)c1)c1ccccc1 [Compound No. 40, N^1-{1-(N-methylisobutylamide)-2-(S)-(3,4-dichlorophenyl)-4-[3-oxo-3,4-dihydro-2H-spiro(isoquinoline-1,4′-piperidin)-1′-yl]butan-2-yl}-N^1-methyl-N^2-ethyl-N^2-phenyloxalamide hydrochloride] |
| 2.9 nM | CN(C[C@](CCN1CCC2(CC1)NC(=O)Cc1ccccc12)(c1ccc(Cl)c(Cl)c1)N(C)C(=O)c1ccc(C(F)(F)F)cc1)C(=O)C(F)(F)F [Compound No. 24, N-{1-(2,2,2-trifluoro-N-methylacetamide)-2-(S)-(3,4-dichlorophenyl)-4-[3-oxo-3,4-dihydro-2H-spiro(isoquinoline-1,4′-piperidin)-1′-yl]butan-2-yl}-N-methyl-4-trifluoromethyl-benzamide hydrochloride] |
| 0.85 nM | CC(=O)N(C)C[C@](CCN1CCC2(CC1)NC(=O)Cc1ccccc12)(c1ccc(Cl)c(Cl)c1)N(C)C(=O)c1ccccc1 [Compound No. 36, N-{1-(N-methyl-acetamide)-2-(S)-(3,4-dichlorophenyl)-4-[3-oxo-3,4-dihydro-2H-spiro(isoquinoline-1,4′-piperidin)-1′-yl]butan-2-yl}-N-methylbenzamide hydrochloride] |
| 0.96 nM | CCC(=O)N(C)C[C@](CCN1CCC2(CC1)c1ccccc1C[S@+]2[O-])(c1ccc(Cl)c(Cl)c1)N(C)C(=O)c1ccccc1 [Compound No. 34, N-{1-(N-methyl-propionamide)-2-(S)-(3,4-dichlorophenyl)-4-[spiro(benzo(c)thiophene-(2S)-oxido-1(3H),4′-piperidin)-1′-yl]butan-2-yl}-N-methylbenzamide hydrochloride] |
| 0.95 nM | CN(C[C@](CCN1CCC2(CC1)NC(=O)Cc1ccccc12)(c1ccc(Cl)c(Cl)c1)N(C)C(=O)c1ccccc1)C(=O)CC(F)(F)F [Compound No. 22, N-{1-(3,3,3-trifluoro-N-methylpropanamido)-2-(S)-(3,4-dichlorophenyl)-4-[3-oxo-3,4-dihydro-2H-spiro(isoquinoline-1,4′-piperidin)-1′-yl]butan-2-yl}-N-methylbenzamide hydrochloride] |
| 4 nM | CN(C[C@](CCN1CCC2(CC1)NC(=O)Cc1ccccc12)(c1ccc(Cl)c(Cl)c1)N(C)C(=O)C(=O)Nc1ccccc1)C(=O)C(F)(F)F [Compound No. 29, N^1-{1-(2,2,2-trifluoro-N-methylacetamide)-2-(S)-(3,4-dichlorophenyl)-4-[3-oxo-3,4-dihydro-2H-spiro(isoquinoline-1,4′-piperidin)-1′-yl]butan-2-yl}-N^1-methyl-N^2-phenyloxalamide hydrochloride] |
| 1.7 nM | CN(C[C@](CCN1CCC2(CC1)NC(=O)Cc1ccccc12)(c1ccc(Cl)c(Cl)c1)N(C)C(=O)c1ccccc1)C(=O)C(F)(F)F [Compound No. 23, N-{1-(2,2,2-trifluoro-N-methylacetamide)-2-(S)-(3,4-dichlorophenyl)-4-[3-oxo-3,4-dihydro-2H-spiro(isoquinoline-1,4′-piperidin)-1′-yl]butan-2-yl}-N-methylbenzamide hydrochloride] |
| 2.6 nM | CN(C[C@](CCN1CCC2(CC1)c1ccccc1CS2(=O)=O)(c1ccc(Cl)c(Cl)c1)N(C)C(=O)Cc1ccccc1)C(=O)CC(F)(F)F [Compound No. 28, N-(1-(3,3,3-trifluoro-N-methylpropanamido)-2-(S)-(3,4-dichlorophenyl)-4-[spiro(benzo(c)thiophene-2,2-dioxido-1(3H),4′-piperidin)-1′-yl]butan-2-yl}-N-methyl-phenylacetamide hydrochloride] |
| 1.8 nM | CCN(C(=O)C(=O)N(C)[C@](CCN1CCC2(CC1)c1ccccc1C[S@+]2[O-])(CN(C)C(=O)C(C)(C)C)c1ccc(Cl)c(Cl)c1)c1ccccc1 [Compound No. 37, N^1-{[1-(N-methyl-trimethylacetamide)-2-(S)-(3,4-dichlorophenyl)-4-[spiro(benzo(c)thiophene-(2S)-oxido-1(3H),4′-piperidin)-1′-yl]butan-2-yl}-N^1-methyl-N^2-ethyl-N^2-phenyloxalamide hydrochloride] |
| 1.9 nM | CCN(C(=O)C(=O)N(C)[C@](CCN1CCC2(CC1)NC(=O)Cc1ccccc12)(CN(C)C(=O)C(C)(C)C)c1ccc(Cl)c(Cl)c1)c1ccccc1 [Compound No. 38, N^1-{1-(N-methyl-trimethylacetamide)-2-(S)-(3,4-dichlorophenyl)-4-[3-oxo-3,4-dihydro-2H-spiro(isoquinoline-1,4′-piperidin)-1′-yl]butan-2-yl}-N^1-methyl-N^2-ethyl-N^2-phenyloxalamide hydrochloride] |
| 0.84 nM | CCN(C(=O)C(=O)N(C)[C@](CCN1CCC2(CC1)NC(=O)Cc1ccccc12)(CN(C)C(=O)CC(F)(F)F)c1ccc(Cl)c(Cl)c1)c1ccccc1 [Compound No. 41, N^1-{1-(3,3,3-trifluoro-N-methylpropanamido)-2-(S)-(3,4-dichlorophenyl)-4-[3-oxo-3,4-dihydro-2H-spiro(isoquinoline-1,4′-piperidin)-1′-yl]butan-2-yl}-N^1-methyl-N^2-ethyl-N^2-phenyloxalamide hydrochloride] |
| 8.1 nM | CN(CC(CCN1CCC2(CC1)c1ccccc1CS2(=O)=O)(c1ccc(Cl)c(Cl)c1)N(C)C(=O)NC(c1ccccc1)c1ccccc1)C(=O)C(F)F (stereo not drawn) [Compound No. 11, N-[2-(3-Benzhydryl-1-methyl-ureido)-2-(3,4-dichloro-phenyl)-4-{spiro[benzo(c)thiophene-1(3H),4′-piperidine]-2,2-dioxido}-1′-yl-butyl]-2,2-difluoro-N-methyl-acetamide hydrochloride] |
| 4.6 nM | CCC(=O)N(C)C[C@](CCN1CCC2(CC1)c1ccccc1C[S@+]2[O-])(c1ccc(Cl)c(Cl)c1)N(C)C(=O)C(=O)N(C)c1ccccc1 [Compound No. 35, N^1-{1-(N-methyl-propionamide)-2-(S)-(3,4-dichlorophenyl)-4-[spiro(benzo(c)thiophene-(2S)-oxido-1(3H),4′-piperidin)-1′-yl]butan-2-yl}-N^1,N^2-dimethyl-N^2-phenyloxalamide hydrochloride] |
| 1 nM | CCN(C(=O)C(=O)N(C)[C@](CCN1CCC2(CC1)c1ccccc1C[S@+]2[O-])(CN(C)C(=O)C(C)C)c1ccc(Cl)c(Cl)c1)c1ccccc1 [Compound No. 39, N^1-{1-(N-methylisobutylamide)-2-(S)-(3,4-dichlorophenyl)-4-[spiro(benzo(c)thiophene-(2S)-oxido-1(3H),4′-piperidin)-1′-yl]butan-2-yl}-N^1-methyl-N^2-ethyl-N^2-phenyloxalamide hydrochloride] |
